Laboratory results taken from US20070142635A1, “Process for preparing hexahydropyrimido[1,2-a]azepine-2-carboxylates and related compounds” (priority 2003, published 2007).

Molecular target: HIV integrase (Human immunodeficiency virus type 1 group M subtype B, UniProt P04585)
Experiment: assay described in WO 02/30930 for inhibition of strand transfer in HIV integrase
Assay type: biochemical
Text: As is clear from the foregoing description, compounds embraced by Formula X or XI and precursors thereof are useful as intermediates in the preparation of Compounds XII, XIII and XIV, which are HIV integrase inhibitors useful, inter alia, in treating HIV infection.

`CN(C)C(=O)C(=O)N(C)C1CCCCn2c1nc(C(=O)NCc1ccc(F)cc1)c(O)c2=O` (racemic) [Compound 14, N-(2-{[(4-fluorobenzyl)amino]carbonyl}-3-hydroxY4-oxo-4,6,7,8,9,10-hexahydropyrnidor[1,2-α]azepin-10-yl)-N,N′,N′-trimethylethanediamide] was tested. Which “inhibition of strand transfer in HIV integrase” value did it give?
The value was “exhibited activity”.
